Test results reported in patent publication US20230301972A1, “ANTI-FIBROTIC COMPOSITION AND RELATED METHODS” (Fred Hutchinson Cancer Center, priority 2020, published 2023).

Tests used:
SMAD2/3 = assay: SMAD firefly luciferase TGF-β reporter assay in IPF-LL29 cells; assay type: cell-based, human; conditions: TGF-β 5 ng/ml, 24 hour
Method: (§1) IPF-LL29, IPF-LL97A, and human lung fibroblast LL47 cell lines were purchased from ATCC. Mouse lung fibroblasts were isolated from the lungs of male C57BL/6J mice. Cells were grown at 37° C. under 5% CO2, 95% ambient atmosphere and maintained in Dulbecco's […] (DMEM) supplemented with 10% FBS (Sigma) and 1% Penn Strep.
FIG. 1A. A TGF-β reporter cell line was generated by transducing a SMAD firefly luciferase reporter (Cellomics Tech, Cat #PLV-10099-50) into IPF-LL29 cells. […] 24 hours later, luciferase substrate was added to the cells and luciferase signal was measured by Bright-Glo reagent (Promega) using a luminescent plate reader. The intensity of the signal correlates with the activity of SMAD2/3.

LX2 cells [1] = assay: qPCR of TGF-β-induced gene expression in LX2 cells; assay type: cell-based, human
Method: (§2) LX2 cells were obtained from Sigma Aldrich (Cat #SCC064). LX2 cells were grown at 37° C. under 5% CO2, 95% ambient atmosphere and maintained in Dulbecco's […] (DMEM) supplemented with 10% FBS (Sigma) and 1% Penn Strep.
FIGS. 10B and 10C: LX2 cells were incubated with TGF-β alone at 6.5 ng/ml or TGF-β with indicated drugs for 48 hours. Total cellular RNA was isolated using a RNeasy Mini Kit (QIAGEN). 1 μg of total RNA was reverse transcribed into first-strand cDNA using an RT2 First Strand Kit (QIAGEN). The resultant cDNA was subjected to qPCR using indicated human primers to measure the changes in mRNA expression of indicated human genes.

[2] = system: TGF-β activity in LX2 cells; assay: SMAD2/3 luciferase reporter assay of TGF-β activity in LX2 cells; assay type: cell-based, human
Text: In preliminary studies, a well-established, culture-activated human hepatic stellate cell model (LX2, initially established by Scott Friedman as described in Xu, L. et al., Human hepatic stellate cell lines, LX-1 and LX-2: new tools for analysis of hepatic fibrosis. Gut 54, 142-151 (2005), incorporated herein by reference in its entirety) was used and a set of 32 computationally chosen, broad-specific kinase inhibitors that collectively target a broad range of kinases were screened. Each drug was examined at eight concentrations, and its effect on the activity of TGF-β (measured by SMAD2/3 luciferase reporter) and on aHSC cell viability was scored. 1536 data points were then analyzed to develop regression modeling to predict the response to >400 drugs (FIG. 9A). […] (FIG. 9B).
as §2

LX2 cells [3] = assay: Live cell wound healing assay in LX2 cells; assay type: cell-based, human; conditions: 1 μM; TGFb 6.5 ng/ml; wound closure density at 50 hour
Method: as §2
FIG. 10A: LX2 cells were plated on 96-well plates (Essen Image Lock, Essen Instruments). […] Wound closure was monitored with Incucyte Live-Cell Imaging System and software (Essen Instruments) every 2-4 hours for 72 hours. The mean relative wound density of at least three biological replicates was calculated. The wound density correlates with the cell motility. Plotted is the wound closure density at 50 hour.

CCl4-induced fibrosis = assay: Carbon tetrachloride (CCl4)-induced liver fibrosis mouse model; assay type: in vivo; conditions: vs CCl4-only treated mouse livers tissues; RPPA, IHC
IPF lung fibroblasts = assay: Collagen contraction assay in lung fibroblasts; assay type: cell-based, human
Method: FIG. 5B: LL-47 cells were cultured in a collagen gel solution in 24-well plate. […] After 24 hours, cell contraction was initiated by releasing the collagen gels from the sides of the culture dishes. The collagen gel size change (contraction index) was measured at various times and quantified with Image Lab.
FIG. 5C: same method as outlined in FIG. 5B. IPF-LL29 and IPF-LL97A cells were cultured in a collagen gel solution. 24 hours later, TGF-β alone or together with indicated drugs was added for 24 hours before cell contraction was initiated. Images shown here were taken 120 hours after the initiation of cell contraction.

[4] = system: Human lung fibroblasts (LL47); assay: qPCR of TGF-β-induced gene expression in human lung fibroblasts LL47; assay type: cell-based; conditions: OSI-632 1 mM as printed; LL47, 24 hours
Method: as §1
FIGS. 3A and 3B. Human lung fibroblast LL47 and mouse primary lung fibroblasts isolated from mouse lungs were incubated with TGF-β alone at 5 ng/ml or TGF-β with indicated drugs for 24 hours. Same method as outlined in FIGS. 2A and 2B was used to measure the mRNA expression of indicated human or mouse genes.

NC(=O)c1c(OCc2c(F)cc(Br)cc2F)nsc1NC(=O)NCCCCN1CCCC1 [OSI-632, 3-(4-bromo-2,6-difluoro-benzyloxy)-5-[3-(4-pyrrolidin-1-yl-butyl)-ureido]-isothiazole-4-carboxylic acid amide]
SMAD2/3 activity (luciferase reporter, dose response) (SMAD2/3): inhibited SMAD2/3 activity
expression of integrins (ITGAV and ITGB6) and HSC proliferation stimuli TGFB2, PDGFA, PDGFB, CTGF, VEGFA, and CCL5 (LX2 cells [1]): significant decrease
inhibition of expression of COL1A1 (FIG. 10C) (LX2 cells [1]): 2 fold
inhibition of expression of COL1A2 (FIG. 10C) (LX2 cells [1]): 3 fold
inhibition of expression of COL5A1 (FIG. 10C) (LX2 cells [1]): 5 fold
decrease in TGF-β-induced expression of COL1A1 (FIG. 10B) (LX2 cells [1]; 48 hours): 2 fold
decrease in TGF-β-induced expression of αSMA (FIG. 10B) (LX2 cells [1]; 48 hours): 2 fold
IC50 ([2]; Homo sapiens, LX-2, SMAD2/3 luciferase reporter): 0.0137 µM
block of TGF-β activity compared with galunisertib and pirfenidone ([2]; LX2 cells): outperformed
TGF-β-induced motility of LX2 cells (LX2 cells [3]): significantly decreased
CCl4-induced phosphorylation of Smad2, Pdgfrb, Fgfr, Src, Nfκβ, and STAT3 (CCl4-induced fibrosis): significantly decreased
contractility in collagen contraction assay (IPF lung fibroblasts; 0.5 or 1 mM OSI-632 as printed, TGF-β-stimulated): significantly decreased contractility
inhibition of motility and contraction compared with nintedanib or pirfenidone (IPF lung fibroblasts; collagen contraction assay, IPF-LL29 and IPF-LL97A cells, 120 hours): significantly outperforms inhibition by nintedanib or pirfenidone
TGFb-induced expression of COL1A1, ACTA2, and FN1 and of indicated proliferation stimuli [4]: inhibited
